Data taken from ChEMBL document CHEMBL1151379, “Chemical Constituents of Hyptis suaveolens. Part I. Spectral and Biological Studies on a Triterpene Acid” (1981).

Tested on: Bipolaris oryzae
Experiment: Antifungal activity against Helminthosporium oryzae at 1000 ppm
Type: functional

C[C@H]1[C@H](C)CC[C@]2(C)CC[C@]3(C(=O)O)C(=CC[C@@H]4[C@@]5(C)CC[C@H](O)C(C)(C)[C@@H]5CC[C@]43C)[C@H]12
Activity: <10%
